ChEMBL document CHEMBL4507288 (2021)

Key:
[1] = target: Alpha-2A adrenergic receptor (Homo sapiens, UniProt P08913); assay: GPCRScan assay: inhibition of Alpha2A; set-up: radioligand conc. used [nm] 1.0 – 3.0, parental cells stable MDCK
[2] = target: 5-hydroxytryptamine receptor 1B (Homo sapiens, UniProt P28222); assay: GPCRScan assay: inhibition of 5-HT1B; set-up: radioligand conc. used [nm] 0.6 – 1.5, parental cells stable HEK
[3] = target: Interleukin-1 receptor-associated kinase 4 (Homo sapiens) (UniProt Q9NWZ3); conditions: Compound concentration 1000.0 nM
[4] = target: Serine/threonine-protein kinase ULK2 (Homo sapiens) (UniProt Q8IYT8); conditions: Compound concentration 1000.0 nM
[5] = target: 5-hydroxytryptamine receptor 1E (Homo sapiens) (UniProt P28566); conditions: Compound concentration 10.0 uM
[6] = target: Receptor-type tyrosine-protein kinase FLT3 (Homo sapiens) (UniProt P36888); conditions: Compound concentration 1000.0 nM
[7] = target: Serine/threonine-protein kinase PRP4 homolog (Homo sapiens) (UniProt Q13523); conditions: Compound concentration 1000.0 nM
[8] = target: Mitogen-activated protein kinase kinase kinase 14 (Homo sapiens) (UniProt Q99558); conditions: Compound concentration 1000.0 nM
Mitogen-activated protein kinase kinase kinase 14 (Homo sapiens), sequence (Q99558 whole entry, looked up): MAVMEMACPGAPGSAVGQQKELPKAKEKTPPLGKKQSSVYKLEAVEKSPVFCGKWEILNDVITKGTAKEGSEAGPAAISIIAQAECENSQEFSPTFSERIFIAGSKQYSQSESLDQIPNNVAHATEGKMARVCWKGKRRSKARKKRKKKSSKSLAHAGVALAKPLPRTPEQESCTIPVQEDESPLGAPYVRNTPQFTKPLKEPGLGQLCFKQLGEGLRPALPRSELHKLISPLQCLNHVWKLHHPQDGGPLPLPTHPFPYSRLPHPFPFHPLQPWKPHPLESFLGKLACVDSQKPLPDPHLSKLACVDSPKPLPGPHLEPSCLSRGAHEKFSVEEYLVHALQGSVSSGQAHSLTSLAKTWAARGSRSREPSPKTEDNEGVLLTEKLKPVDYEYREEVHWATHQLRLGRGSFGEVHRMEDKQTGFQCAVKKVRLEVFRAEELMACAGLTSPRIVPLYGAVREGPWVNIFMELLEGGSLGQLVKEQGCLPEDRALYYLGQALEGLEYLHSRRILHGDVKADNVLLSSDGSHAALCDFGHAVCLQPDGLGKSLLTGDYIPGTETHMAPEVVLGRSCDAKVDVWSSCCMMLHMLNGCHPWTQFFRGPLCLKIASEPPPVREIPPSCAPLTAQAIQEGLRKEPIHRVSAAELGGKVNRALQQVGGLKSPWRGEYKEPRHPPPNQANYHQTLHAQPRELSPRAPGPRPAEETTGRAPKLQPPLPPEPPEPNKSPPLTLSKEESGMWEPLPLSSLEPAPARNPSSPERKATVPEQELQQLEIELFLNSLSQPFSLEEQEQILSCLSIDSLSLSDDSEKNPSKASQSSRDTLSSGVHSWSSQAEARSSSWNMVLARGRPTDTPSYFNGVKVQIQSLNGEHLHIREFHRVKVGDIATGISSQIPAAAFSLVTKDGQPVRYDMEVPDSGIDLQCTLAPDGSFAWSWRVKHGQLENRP

[9] = target: Calcium/calmodulin-dependent protein kinase type 1B (Homo sapiens) (UniProt Q6P2M8); conditions: Compound concentration 1000.0 nM
[10] = target: Calcium/calmodulin-dependent protein kinase type II subunit beta (Homo sapiens) (UniProt Q13554); conditions: Compound concentration 1000.0 nM
[11] = target: Serine/threonine-protein kinase VRK2 (Homo sapiens) (UniProt Q86Y07); conditions: Compound concentration 1000.0 nM
[12] = target: Ephrin type-A receptor 4 (Homo sapiens) (UniProt P54764); conditions: Compound concentration 1000.0 nM
[13] = target: Rhodopsin kinase GRK1 (Homo sapiens) (UniProt Q15835); conditions: Compound concentration 1000.0 nM
[14] = target: Rho-associated protein kinase 1 (Homo sapiens) (UniProt Q13464); conditions: Compound concentration 1000.0 nM
[15] = target: Ephrin type-A receptor 8 (Homo sapiens) (UniProt P29322); conditions: Compound concentration 1000.0 nM
[16] = target: SNF-related serine/threonine-protein kinase (Homo sapiens) (UniProt Q9NRH2); conditions: Compound concentration 1000.0 nM
[17] = target: Serine/threonine-protein kinase BRSK2 (Homo sapiens) (UniProt Q8IWQ3); conditions: Compound concentration 1000.0 nM
[18] = target: Ephrin type-A receptor 1 (Homo sapiens) (UniProt P21709); conditions: Compound concentration 1000.0 nM
[19] = target: Cyclin-dependent kinase-like 3 (Homo sapiens) (UniProt Q8IVW4); conditions: Compound concentration 1000.0 nM
[20] = target: Serine/threonine-protein kinase PAK 6 (Homo sapiens) (UniProt Q9NQU5); conditions: Compound concentration 1000.0 nM
[21] = target: Serine/threonine-protein kinase 24 (Homo sapiens) (UniProt Q9Y6E0); conditions: Compound concentration 1000.0 nM
[22] = target: Serine/threonine-protein kinase 16 (Homo sapiens) (UniProt O75716); conditions: Compound concentration 1000.0 nM
[23] = target: Serine/threonine-protein kinase MARK1 (Homo sapiens) (UniProt Q9P0L2); conditions: Compound concentration 1000.0 nM
[24] = target: Serine/threonine-protein kinase pim-2 (Homo sapiens) (UniProt Q9P1W9); conditions: Compound concentration 1000.0 nM
[25] = target: Serine/threonine-protein kinase 32A (Homo sapiens) (UniProt Q8WU08); conditions: Compound concentration 1000.0 nM
[26] = target: Serine/threonine-protein kinase RIO1 (Homo sapiens) (UniProt Q9BRS2); conditions: Compound concentration 1000.0 nM
Serine/threonine-protein kinase RIO1 (Homo sapiens), sequence (Q9BRS2 whole entry): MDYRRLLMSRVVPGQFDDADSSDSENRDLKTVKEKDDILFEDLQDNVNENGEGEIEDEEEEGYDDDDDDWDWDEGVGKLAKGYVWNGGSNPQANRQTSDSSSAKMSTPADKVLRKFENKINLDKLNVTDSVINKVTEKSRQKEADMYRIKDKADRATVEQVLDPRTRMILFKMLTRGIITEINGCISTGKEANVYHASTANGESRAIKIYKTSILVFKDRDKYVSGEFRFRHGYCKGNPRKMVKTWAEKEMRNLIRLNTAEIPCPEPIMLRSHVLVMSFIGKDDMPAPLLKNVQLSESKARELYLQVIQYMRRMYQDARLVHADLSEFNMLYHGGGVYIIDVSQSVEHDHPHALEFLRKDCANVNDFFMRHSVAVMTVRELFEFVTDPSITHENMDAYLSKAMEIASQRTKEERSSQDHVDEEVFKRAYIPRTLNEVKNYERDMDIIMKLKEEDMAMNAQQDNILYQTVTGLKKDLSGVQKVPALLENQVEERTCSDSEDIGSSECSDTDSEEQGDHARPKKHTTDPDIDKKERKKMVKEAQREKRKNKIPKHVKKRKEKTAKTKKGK

[27] = target: STE20/SPS1-related proline-alanine-rich protein kinase (Homo sapiens) (UniProt Q9UEW8); conditions: Compound concentration 1000.0 nM
[28] = target: Proto-oncogene tyrosine-protein kinase ROS (Homo sapiens) (UniProt P08922); conditions: Compound concentration 1000.0 nM
Proto-oncogene tyrosine-protein kinase ROS (Homo sapiens), sequence (P08922 whole entry): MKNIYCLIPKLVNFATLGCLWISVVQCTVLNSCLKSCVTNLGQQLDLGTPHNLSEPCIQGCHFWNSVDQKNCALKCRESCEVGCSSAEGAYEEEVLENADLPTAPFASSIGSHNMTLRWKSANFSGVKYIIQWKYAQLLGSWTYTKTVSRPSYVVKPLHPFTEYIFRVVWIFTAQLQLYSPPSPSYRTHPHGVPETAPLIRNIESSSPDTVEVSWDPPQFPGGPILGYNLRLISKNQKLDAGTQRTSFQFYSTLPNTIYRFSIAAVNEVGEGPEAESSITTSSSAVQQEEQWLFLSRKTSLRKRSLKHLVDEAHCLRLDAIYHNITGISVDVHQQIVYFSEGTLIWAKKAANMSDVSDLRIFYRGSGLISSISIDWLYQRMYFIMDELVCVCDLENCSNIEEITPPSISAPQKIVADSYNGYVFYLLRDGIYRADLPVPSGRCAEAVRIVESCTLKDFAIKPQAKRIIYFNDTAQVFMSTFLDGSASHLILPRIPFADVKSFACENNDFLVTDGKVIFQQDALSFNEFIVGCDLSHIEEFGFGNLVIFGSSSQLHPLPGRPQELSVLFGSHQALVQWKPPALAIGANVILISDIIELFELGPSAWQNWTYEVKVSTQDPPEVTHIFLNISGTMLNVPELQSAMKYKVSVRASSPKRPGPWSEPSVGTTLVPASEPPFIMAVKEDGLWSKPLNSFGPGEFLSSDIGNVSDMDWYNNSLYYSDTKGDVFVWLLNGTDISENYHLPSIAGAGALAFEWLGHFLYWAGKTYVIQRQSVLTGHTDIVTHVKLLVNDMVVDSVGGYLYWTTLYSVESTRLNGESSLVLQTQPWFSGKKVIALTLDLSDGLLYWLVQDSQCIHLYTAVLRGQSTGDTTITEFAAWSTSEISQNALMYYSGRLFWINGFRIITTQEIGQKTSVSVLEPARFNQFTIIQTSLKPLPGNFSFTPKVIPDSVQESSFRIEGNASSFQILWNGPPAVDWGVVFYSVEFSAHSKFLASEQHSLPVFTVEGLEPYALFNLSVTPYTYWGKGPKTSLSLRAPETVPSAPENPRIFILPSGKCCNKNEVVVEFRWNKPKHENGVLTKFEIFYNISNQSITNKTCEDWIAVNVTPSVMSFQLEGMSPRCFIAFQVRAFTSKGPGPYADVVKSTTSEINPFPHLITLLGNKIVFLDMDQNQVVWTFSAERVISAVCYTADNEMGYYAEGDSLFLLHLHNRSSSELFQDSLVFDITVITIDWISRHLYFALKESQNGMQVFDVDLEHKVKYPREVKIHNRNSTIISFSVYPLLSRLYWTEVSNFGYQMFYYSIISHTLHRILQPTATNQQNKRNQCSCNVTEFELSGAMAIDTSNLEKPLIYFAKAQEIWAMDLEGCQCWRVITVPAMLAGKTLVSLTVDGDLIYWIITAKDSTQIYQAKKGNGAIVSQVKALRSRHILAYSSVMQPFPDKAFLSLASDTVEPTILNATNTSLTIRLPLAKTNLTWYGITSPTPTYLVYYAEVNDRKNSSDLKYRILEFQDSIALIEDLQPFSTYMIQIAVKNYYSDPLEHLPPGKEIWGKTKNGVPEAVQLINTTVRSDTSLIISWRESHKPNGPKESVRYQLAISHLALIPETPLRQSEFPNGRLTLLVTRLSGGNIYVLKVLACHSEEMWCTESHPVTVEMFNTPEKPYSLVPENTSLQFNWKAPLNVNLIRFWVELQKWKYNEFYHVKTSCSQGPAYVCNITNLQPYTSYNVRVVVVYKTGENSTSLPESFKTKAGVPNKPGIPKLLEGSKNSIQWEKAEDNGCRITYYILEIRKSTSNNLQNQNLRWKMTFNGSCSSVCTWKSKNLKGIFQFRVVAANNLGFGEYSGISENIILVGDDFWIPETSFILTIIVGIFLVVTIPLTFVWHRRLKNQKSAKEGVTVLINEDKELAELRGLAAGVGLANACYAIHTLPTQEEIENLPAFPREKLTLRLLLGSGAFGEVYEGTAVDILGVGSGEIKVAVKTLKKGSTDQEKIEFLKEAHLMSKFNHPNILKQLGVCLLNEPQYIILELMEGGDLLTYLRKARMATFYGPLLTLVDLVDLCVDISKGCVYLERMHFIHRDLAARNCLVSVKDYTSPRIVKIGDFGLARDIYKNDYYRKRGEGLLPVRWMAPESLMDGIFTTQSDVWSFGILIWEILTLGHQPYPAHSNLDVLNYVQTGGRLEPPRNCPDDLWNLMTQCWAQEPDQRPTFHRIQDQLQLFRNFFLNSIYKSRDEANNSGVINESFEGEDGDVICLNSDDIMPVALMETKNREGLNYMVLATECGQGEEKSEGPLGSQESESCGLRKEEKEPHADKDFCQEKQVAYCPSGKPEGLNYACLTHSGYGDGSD

[29] = target: Serine/threonine-protein kinase N2 (Homo sapiens) (UniProt Q16513); conditions: Compound concentration 1000.0 nM
[30] = target: Serine/threonine-protein kinase 4 (Homo sapiens) (UniProt Q13043); conditions: Compound concentration 1000.0 nM
Serine/threonine-protein kinase 4 (Homo sapiens), sequence (Q13043 whole entry, canonical isoform): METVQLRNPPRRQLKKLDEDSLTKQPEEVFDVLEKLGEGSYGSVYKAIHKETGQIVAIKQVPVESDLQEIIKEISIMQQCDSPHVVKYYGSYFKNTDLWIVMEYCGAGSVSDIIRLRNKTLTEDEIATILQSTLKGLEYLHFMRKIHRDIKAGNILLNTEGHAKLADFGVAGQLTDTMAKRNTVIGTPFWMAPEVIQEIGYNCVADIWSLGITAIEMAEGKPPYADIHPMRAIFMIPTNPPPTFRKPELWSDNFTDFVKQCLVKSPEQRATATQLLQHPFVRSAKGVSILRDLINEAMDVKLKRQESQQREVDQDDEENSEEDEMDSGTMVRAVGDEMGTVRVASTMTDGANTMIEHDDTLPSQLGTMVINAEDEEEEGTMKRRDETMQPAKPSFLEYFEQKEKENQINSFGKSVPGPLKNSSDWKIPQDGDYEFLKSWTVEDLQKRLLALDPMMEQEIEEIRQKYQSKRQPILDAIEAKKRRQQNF

[31] = test system: Phosphatidylinositol 4,5-bisphosphate 3-kinase catalytic subunit alpha isoform (Homo sapiens), P42336 [Q546K]; conditions: Compound concentration 1000.0 nM
[32] = target: Testis-specific serine/threonine-protein kinase 1 (Homo sapiens) (UniProt Q9BXA7); conditions: Compound concentration 1000.0 nM
[33] = target: Myotonin-protein kinase (Homo sapiens) (UniProt Q09013); conditions: Compound concentration 1000.0 nM
[34] = target: Aurora kinase B (Homo sapiens) (UniProt Q96GD4); conditions: Compound concentration 1000.0 nM
[35] = target: Phosphatidylinositol 5-phosphate 4-kinase type-2 gamma (Homo sapiens) (UniProt Q8TBX8); conditions: Compound concentration 1000.0 nM
[36] = target: Bone morphogenetic protein receptor type-1B (Homo sapiens) (UniProt O00238); conditions: Compound concentration 1000.0 nM
[37] = target: Ephrin type-B receptor 3 (Homo sapiens) (UniProt P54753); conditions: Compound concentration 1000.0 nM
[38] = target: Serine/threonine-protein kinase MARK2 (Homo sapiens) (UniProt Q7KZI7); conditions: Compound concentration 1000.0 nM
[39] = target: Ephrin type-B receptor 6 (Homo sapiens) (UniProt O15197); conditions: Compound concentration 1000.0 nM
[40] = target: Serine/threonine-protein kinase PLK2 (Homo sapiens) (UniProt Q9NYY3); conditions: Compound concentration 1000.0 nM
Serine/threonine-protein kinase PLK2 (Homo sapiens), sequence (Q9NYY3 whole entry, looked up): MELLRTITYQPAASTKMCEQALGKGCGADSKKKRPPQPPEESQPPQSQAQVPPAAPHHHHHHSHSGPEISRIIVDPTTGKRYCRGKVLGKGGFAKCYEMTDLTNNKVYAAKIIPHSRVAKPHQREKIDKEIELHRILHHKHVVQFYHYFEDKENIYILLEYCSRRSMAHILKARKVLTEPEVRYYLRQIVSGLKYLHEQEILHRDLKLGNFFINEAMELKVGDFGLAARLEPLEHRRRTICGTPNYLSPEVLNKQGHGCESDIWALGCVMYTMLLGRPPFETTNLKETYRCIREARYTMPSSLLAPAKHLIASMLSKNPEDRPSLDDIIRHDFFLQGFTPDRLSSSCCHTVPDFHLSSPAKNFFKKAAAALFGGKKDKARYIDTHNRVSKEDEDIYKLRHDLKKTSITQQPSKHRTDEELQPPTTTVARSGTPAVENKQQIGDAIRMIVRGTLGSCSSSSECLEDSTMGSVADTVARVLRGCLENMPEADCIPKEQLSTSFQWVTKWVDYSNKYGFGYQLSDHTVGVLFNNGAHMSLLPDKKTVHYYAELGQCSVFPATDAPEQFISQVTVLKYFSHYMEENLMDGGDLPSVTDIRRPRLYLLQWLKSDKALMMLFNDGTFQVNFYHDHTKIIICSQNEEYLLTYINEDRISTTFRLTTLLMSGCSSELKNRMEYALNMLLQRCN

[41] = target: Mitogen-activated protein kinase 10 (Homo sapiens) (UniProt P53779); conditions: Compound concentration 1000.0 nM
[42] = target: Non-receptor tyrosine-protein kinase TYK2 (Homo sapiens) (UniProt P29597); conditions: Compound concentration 1000.0 nM
[43] = target: Aurora kinase C (Homo sapiens) (UniProt Q9UQB9); conditions: Compound concentration 1000.0 nM
[44] = target: Mitogen-activated protein kinase 12 (Homo sapiens) (UniProt P53778); conditions: Compound concentration 1000.0 nM
[45] = target: Wee1-like protein kinase (Homo sapiens) (UniProt P30291); conditions: Compound concentration 1000.0 nM

CC(C)(C)OC(=O)N1CCCC1CNC1CCC(c2cc(F)ccc2F)(S(=O)(=O)c2ccc(Cl)cc2)CC1 (stereo not given) [GSI-NC]
Ki [1]: 237 nM
Ki [2]: 946 nM

O=S(=O)(NC1CCC(c2cc(F)ccc2F)(S(=O)(=O)c2ccc(Cl)cc2)CC1)C(F)(F)F (stereo not given) [MRK-560]
residual activity [3]: 97%
residual activity [4]: 100%
inhibition [5]: -8.31%
residual activity [6]: 100%
residual activity [7]: 100%
residual activity [8]: 82%
residual activity [9]: 100%
residual activity [10]: 97%
residual activity [11]: 100%
residual activity [12]: 95%
residual activity [13]: 84%
residual activity [14]: 84%
residual activity [15]: 100%
residual activity [16]: 100%
residual activity [17]: 100%
residual activity [18]: 100%
residual activity [19]: 100%
residual activity [20]: 100%
residual activity [21]: 99%
residual activity [22]: 97%
residual activity [23]: 100%
residual activity [24]: 100%
residual activity [25]: 97%
residual activity [26]: 98%
residual activity [27]: 100%
residual activity [28]: 100%
residual activity [29]: 100%
residual activity [30]: 100%
residual activity [31]: 91%
residual activity [32]: 100%
residual activity [33]: 100%
residual activity [34]: 100%
residual activity [35]: 100%
residual activity [36]: 100%
residual activity [37]: 100%
residual activity [38]: 100%
residual activity [39]: 100%
residual activity [40]: 100%
residual activity [41]: 67%
residual activity [42]: 86%
residual activity [43]: 94%
residual activity [44]: 89%
residual activity [45]: 90%
